Results reported in patent publication US9359338B2, “Cyclopropanecarboxamido-substitute aromatic compounds as anti-tumor agents” (Crown Bioscience Inc. (Taiwan), priority 2012, dated 2016).
Like-named read-outs stand apart in the source and are kept apart here.

What was measured:
KDR kinase (790-1356 AA) = KDR kinase (790-1356 AA) (Homo sapiens (Human), UniProt P35968); experiment: Inhibitory activity at KDR kinase (Lance Ultra Ulight-TK assay); type: biochemical
Summary of the method: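 TR-FRET (Eu-anti-phosphotyrosine PT66) with 20 nM KDR preincubated with compound 20 min at 30 °C in HEPES pH 7.5 buffer with Mg2+/Mn2+, 0.5% DMSO.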

B-Raf kinase = B-Raf kinase (Homo sapiens (Human), UniProt P15056); experiment: Inhibitory activity at B-Raf kinase (ADP-GLO assay); type: biochemical
Sequence of B-Raf kinase (P15056 416-766): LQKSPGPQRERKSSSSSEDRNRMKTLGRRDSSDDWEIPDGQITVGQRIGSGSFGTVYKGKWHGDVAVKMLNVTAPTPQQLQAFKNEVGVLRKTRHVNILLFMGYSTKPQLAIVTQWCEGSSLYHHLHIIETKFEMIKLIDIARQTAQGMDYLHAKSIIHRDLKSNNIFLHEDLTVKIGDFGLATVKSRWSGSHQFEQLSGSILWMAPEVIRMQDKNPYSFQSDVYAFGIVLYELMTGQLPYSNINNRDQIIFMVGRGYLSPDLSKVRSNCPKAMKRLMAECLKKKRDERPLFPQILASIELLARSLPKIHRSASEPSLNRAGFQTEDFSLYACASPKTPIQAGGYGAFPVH
Description: Inhibitory Activity of Compounds at B-Raf Kinase
• [Experimental method]: Use ADP-GLO™ assay kit from Promega to evaluate the inhibitory activity of compounds at B-Raf • [Instrument]: PerKinElmer's ENVISION plate reader • [Material]: Optiplate-384 well plate (PerKinElmer), kinase buffer (50 mM Hepes pH7.5, 1 mM EGTA, 2 mM DTT, 10 mM Mg^2+, 0.05% BSA), B-Raf kinase (Millipore, catalogue #14-530-K), GST-MEK1 substrate (Carna, catalogue #07-141-10), Super pure ATP (Promega), ADP-GLO™ assay kit (Promega, catalogue # V9102), DMSO (Sigma, catalogue #34869), purified water (Millipore, type: Milli-Q). • [Study conditions]: Mix B-Raf kinase (final concentration: 5 nM) and compound (DMSO final concentration: 0.25%) and preincubate at 30° C. for 20 min, then add ATP (final concentration: 6 μM) and reaction substrate (final concentration: 30 nM), React for 2 hrs at 30° C. After reaction, add ADP-GLO™ reagent, react for 40 min at room temperature, then add ADP-GLO™ detecting agent, react for 30 min at room temperature. After that, use ENVSION to measure the […]. • [Samples]: Compounds in the examples and Sorafenib (positive control) • [Data analysis]: Use CBIS data analysis software to calculate IC50 values

pERK in MDA-MB-231 cells = experiment: Inhibitory activity at pERK (In Cell Western, MDA-MB-231 cells); type: cell-based
Summary of the method: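 MDA-MB-231 cells were treated 2 h at 37 °C with 8 compound concentrations in 3-fold dilutions from 30 μM top (0.3% DMSO, DMEM with 0.1% BSA). Cells were then fixed, methanol-permeabilized and immunostained for pERK with PI counterstain. Fluorescence was read on Acumen and IC50 calculated.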

PLC-PRF-5 cells = experiment: Inhibition of proliferation of PLC-PRF-5 cells (ATPlite); type: cell-based; settings: Homo sapiens
Summary of the method: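 PLC-PRF-5 cells in DMEM/10% FBS, seeded 2 h before compound; 8-point 3-fold dilutions from 30 μM final top, 0.3% DMSO. After 96 h at 37 °C, 5% CO2, ATP content read by ATPlite luminescence; IC50 calculated.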

[1] = Homo sapiens, MDA-MB-231, MDA-MB-231 cells, read-out: MDA-MB-231 pERK IC50
[2] = PLC-PRF-5, PLC-PRF-5 cells, read-out: PLC-PRF-5 cell proliferation IC50

Sequence of KDR kinase (790-1356 AA) (P35968 790-1356): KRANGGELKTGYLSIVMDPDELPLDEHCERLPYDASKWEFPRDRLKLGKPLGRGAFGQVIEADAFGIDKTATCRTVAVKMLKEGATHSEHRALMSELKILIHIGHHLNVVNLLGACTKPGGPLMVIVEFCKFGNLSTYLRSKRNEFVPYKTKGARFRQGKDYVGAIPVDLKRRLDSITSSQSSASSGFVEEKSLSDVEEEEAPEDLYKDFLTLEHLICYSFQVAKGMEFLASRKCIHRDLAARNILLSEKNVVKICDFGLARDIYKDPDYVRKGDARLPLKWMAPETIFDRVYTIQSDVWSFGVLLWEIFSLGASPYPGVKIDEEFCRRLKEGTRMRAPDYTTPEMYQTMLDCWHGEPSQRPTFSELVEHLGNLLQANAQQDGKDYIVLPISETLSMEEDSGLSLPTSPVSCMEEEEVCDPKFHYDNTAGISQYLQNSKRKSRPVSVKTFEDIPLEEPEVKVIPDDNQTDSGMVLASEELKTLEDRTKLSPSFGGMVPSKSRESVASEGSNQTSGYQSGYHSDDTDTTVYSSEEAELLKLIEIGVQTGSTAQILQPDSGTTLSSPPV

SMILES | IC50 (KDR kinase (790-1356 AA)) | IC50 (B-Raf kinase) | IC50 (pERK in MDA-MB-231 cells; [1]) | IC50 (pERK in MDA-MB-231 cells; MDA-MB-231 cells, read-out: MDA-MB-231 pERK IC50) | IC50 (PLC-PRF-5 cells; [2]) | IC50 (pERK in MDA-MB-231 cells; Homo sapiens, MDA-MB-231, read-out: MDA-MB-231 pERK IC50) | IC50 (PLC-PRF-5 cells; PLC-PRF-5, read-out: PLC-PRF-5 cell proliferation IC50)
Cc1cc(Oc2cc(NC(=O)C3CC3)ncn2)ccc1NC(=O)Nc1ccc(Cl)c(C(F)(F)F)c1 [Exe. 001, N-[6-[4-[[4-chloro-3-(trifluoromethyl)phenyl]carbamoylamino]-3-methyl-phenoxy]pyrimidin-4-yl]cyclopropanecarboxamide] | 10.9 nM | 39 nM | 31 nM | – | 6900 nM | – | –
O=C(Nc1ccc(Oc2cc(NC(=O)C3CC3)ncn2)cc1)Nc1ccc(Cl)c(C(F)(F)F)c1 [Exe. 007] | 5.7 nM | 24.8 nM | 46 nM | – | 7240 nM | – | –
O=C(Nc1ccc(Oc2cc(NC(=O)C3CC3)ncn2)c(F)c1)Nc1ccc(Cl)c(C(F)(F)F)c1 [Exe. 008] | 5.7 nM | 24.9 nM | 124 nM | – | 4550 nM | – | –
O=C(Nc1ccc(Cl)c(C(F)(F)F)c1)Nc1ccc(Oc2cc(NC(=O)C3CC3)ncn2)cc1F [Exe. 009] | 8.9 nM | 26 nM | 20.5 nM | – | 3650 nM | – | –
Cc1cc(NC(=O)Nc2ccc(Cl)c(C(F)(F)F)c2)ccc1Oc1cc(NC(=O)C2CC2)ncn1 [Exe. 010] | 13.7 nM | 97 nM | 43.1 nM | – | 4350 nM | – | –
Cc1cc(NC(=O)Nc2ccc(Cl)c(C(F)(F)F)c2)cnc1Oc1ccnc(NC(=O)C2CC2)c1 [Exe. 017] | 29.2 nM | 15.7 nM | 18.8 nM | – | 2820 nM | – | –
O=C(Nc1cnc(Oc2ccnc(NC(=O)C3CC3)c2)c(Cl)c1)Nc1ccc(Cl)c(C(F)(F)F)c1 [Exe. 019] | 22.3 nM | 18.1 nM | 172 nM | – | 840 nM | – | –
O=C(Nc1ccc(Oc2ccnc(NC(=O)C3CC3)c2)nc1)Nc1ccc(Cl)c(C(F)(F)F)c1 [Exe. 020] | 5.8 nM | 19.7 nM | 291 nM | – | 1990 nM | – | –
O=C(Nc1ccc(Cl)c(C(F)(F)F)c1)Nc1ccc(Oc2ccnc(NC(=O)C3CC3)c2)cn1 [Exe. 021] | 7.5 nM | 24.7 nM | 10.2 nM | – | 600 nM | – | –
O=C(Nc1ccc(Oc2ccnc(NC(=O)C3CC3)c2)c(F)c1)Nc1ccc(Cl)c(C(F)(F)F)c1 [Exe. 022] | 4.3 nM | 3.6 nM | – | 19.5 nM | 1710 nM | – | –
Cc1cc(Oc2ccnc(NC(=O)C3CC3)c2)ccc1NC(=O)Nc1ccc(Cl)c(C(F)(F)F)c1 [Exe. 023] | 10.5 nM | 15 nM | 6.9 nM | – | 4170 nM | – | –
O=C(Nc1cc(F)cc(Oc2ccnc(NC(=O)C3CC3)c2)c1)Nc1ccc(Cl)c(C(F)(F)F)c1 [Exe. 024] | 33.8 nM | 5.1 nM | 19.5 nM | – | 4240 nM | – | –
O=C(Nc1cnc(Oc2ccnc(NC(=O)C3CC3)c2)c(F)c1)Nc1ccc(Cl)c(C(F)(F)F)c1 [Exe. 025] | 14.9 nM | 9.1 nM | 71.6 nM | – | 371 nM | – | –
CC1(C(=O)Nc2cc(Oc3ccc(NC(=O)Nc4ccc(Cl)c(C(F)(F)F)c4)cc3F)ccn2)CC1 [Exe. 028] | 12.7 nM | 21 nM | 391 nM | – | 2490 nM | – | –
O=C(Nc1ccc(Cl)c(C(F)(F)F)c1)Nc1ccc(Oc2ccnc(NC(=O)C3CC3)c2)cc1F [Exe. 029] | 3.9 nM | 7.3 nM | 10.1 nM | – | 790 nM | – | –
Cc1ccc(Oc2ccnc(NC(=O)C3CC3)c2)cc1NC(=O)Nc1ccc(Cl)c(C(F)(F)F)c1 [Exe. 030] | 12.4 nM | 18 nM | 23.2 nM | – | 2800 nM | – | –
N#Cc1ccc(NC(=O)Nc2ccc(Oc3ccnc(NC(=O)C4CC4)c3)cc2F)cc1C(F)(F)F [Exe. 206] | 14.6 nM | – | – | – | – | 8.2 nM | 1650 nM

Further lines, with some results ahead:

IC50 (KDR kinase (790-1356 AA)) | IC50 (B-Raf kinase) | IC50 (pERK in MDA-MB-231 cells; [1]) | IC50 (pERK in MDA-MB-231 cells; MDA-MB-231 cells, read-out: MDA-MB-231 pERK IC50) | SMILES | IC50 (PLC-PRF-5 cells; [2]) | IC50 (pERK in MDA-MB-231 cells; Homo sapiens, MDA-MB-231, read-out: MDA-MB-231 pERK IC50) | IC50 (PLC-PRF-5 cells; PLC-PRF-5, read-out: PLC-PRF-5 cell proliferation IC50)
14.5 nM | 25 nM | 33.8 nM | – | Cc1cc(NC(=O)Nc2ccc(Cl)c(C(F)(F)F)c2)ccc1Oc1ccnc(NC(=O)C2CC2)c1 [Exe. 031] | 1300 nM | – | –
10.2 nM | 9.4 nM | 4.7 nM | – | O=C(Nc1cccc(OC(F)(F)F)c1)Nc1ccc(Oc2ccnc(NC(=O)C3CC3)c2)cc1F [Exe. 034] | 219 nM | – | –
7.8 nM | 8.9 nM | 9.3 nM | – | CC(F)(F)c1cc(F)cc(NC(=O)Nc2ccc(Oc3ccnc(NC(=O)C4CC4)c3)cc2F)c1 [Exe. 035] | 259 nM | – | –
11.9 nM | 4.6 nM | – | – | CN1CCN(Cc2cc(NC(=O)Nc3ccc(Oc4ccnc(NC(=O)C5CC5)c4)cc3)cc(C(F)(F)F)c2)CC1 [Exe. 064] | 610 nM | – | –
5.7 nM | – | 14.2 nM | – | Cc1cc(Oc2ccnc(NC(=O)C3CC3)c2)ccc1NC(=O)Nc1cc(F)cc(C(C)(F)F)c1 [Exe. 197] | 3290 nM | – | –
8.3 nM | – | 5.7 nM | – | Cc1cc(Oc2ccnc(NC(=O)C3CC3)c2)ccc1NC(=O)Nc1cc(C(C)(F)F)ccc1F [Exe. 198] | 740 nM | – | –
10 nM | – | 5.5 nM | – | Cc1cc(Oc2ccnc(NC(=O)C3CC3)c2)ccc1NC(=O)Nc1ccc(F)c(C(C)(F)F)c1 [Exe. 200] | 3180 nM | – | –
11.4 nM | – | 326 nM | – | O=C(Nc1cccc(C(F)(F)F)c1)Nc1cnc(Oc2ccnc(NC(=O)C3CC3)c2)c(F)c1 [Exe. 201] | 239 nM | – | –
12.7 nM | – | 246 nM | – | CC(F)(F)c1ccc(F)c(NC(=O)Nc2cnc(Oc3ccnc(NC(=O)C4CC4)c3)c(F)c2)c1 [Exe. 202] | 66 nM | – | –
16.2 nM | – | 61 nM | – | CN(c1ccnc(NC(=O)C2CC2)c1)c1ccc(NC(=O)Nc2cccc(C(F)(F)F)c2)c(F)c1 [Exe. 203] | 539 nM | – | –
9.3 nM | – | 72 nM | – | O=C(Nc1cccc(C(F)(F)F)c1)Nc1ccc(Nc2ccnc(NC(=O)C3CC3)c2)cc1F [Exe. 204] | 1850 nM | – | –
10.2 nM | – | 8.3 nM | – | Cc1ccc(NC(=O)Nc2ccc(Oc3ccnc(NC(=O)C4CC4)c3)cc2F)cc1C(F)(F)F [Exe. 207] | 71 nM | – | –
10.7 nM | – | 7.2 nM | – | O=C(Nc1cncc(C(F)(F)F)c1)Nc1ccc(Oc2ccnc(NC(=O)C3CC3)c2)cc1F [Exe. 213] | 79 nM | – | –
9.4 nM | – | 11.5 nM | – | O=C(Nc1ccc(Oc2ccnc(NC(=O)C3CC3)c2)cc1F)Nc1cc(OC(F)(F)F)ccc1F [Exe. 214] | 180 nM | – | –
8.7 nM | – | 17.3 nM | – | O=C(Nc1ccc(F)c(C2CC2)c1)Nc1ccc(Oc2ccnc(NC(=O)C3CC3)c2)cc1F [Exe. 222] | 490 nM | – | –
6.9 nM | – | 9 nM | – | Cc1ccc(Oc2ccnc(NC(=O)C3CC3)c2)cc1NC(=O)Nc1ccc(F)c(C(F)(F)F)c1 [Exe. 223] | 3430 nM | – | –
9.1 nM | – | 11 nM | – | Cc1ccc(Oc2ccnc(NC(=O)C3CC3)c2)cc1NC(=O)Nc1cccc(C(F)(F)F)c1 [Exe. 226] | 3530 nM | – | –
14.7 nM | – | 12 nM | – | Cc1ccc(Oc2ccnc(NC(=O)C3CC3)c2)cc1NC(=O)Nc1ccc(Cl)c(C(C)(F)F)c1 [Exe. 228] | 3330 nM | – | –
13.4 nM | – | 6.9 nM | – | Cc1ccc(Oc2ccnc(NC(=O)C3CC3)c2)cc1NC(=O)Nc1ccc(F)c(C(C)(F)F)c1 [Exe. 229] | 3170 nM | – | –
8.1 nM | – | 18.5 nM | – | Cc1cc(NC(=O)Nc2cc(F)cc(C(C)(F)F)c2)ccc1Oc1ccnc(NC(=O)C2CC2)c1 [Exe. 233] | 559 nM | – | –
15.6 nM | – | 57.3 nM | – | O=C(Nc1cc(-c2cn[nH]c2)cc(C(F)(F)F)c1)Nc1ccc(Oc2ccnc(NC(=O)C3CC3)c2)c(F)c1 [Exe. 238] | 2220 nM | – | –
19.1 nM | – | 27.2 nM | – | O=C(Nc1cc(NC(=O)[C@@H]2CCCN2)cc(C(F)(F)F)c1)Nc1ccc(Oc2ccnc(NC(=O)C3CC3)c2)c(F)c1 [Exe. 240] | 1040 nM | – | –
16.7 nM | – | 372 nM | – | CN1CCC(C(=O)Nc2cc(NC(=O)Nc3ccc(Oc4ccnc(NC(=O)C5CC5)c4)c(F)c3)cc(C(F)(F)F)c2)CC1 [Exe. 242] | 4630 nM | – | –
